Experimental data as given in patent publication US20220073536A1 (Rigel Pharmaceuticals, Inc., priority 2003, published 2022).
pIC50: −log10 of the molar value.

Tests used:
[1] = system: cultured human mast cells (CHMC); assay: CHMC low cell density IgE activation: tryptase assay; format: cell-based; details: low cell density CHMC, IgE activation
How it was run: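 Anti-IgE-driven degranulation of cultured human mast cells at low density, 1000–1500 cells/well, was induced over 30 min at 37 °C. It was scored by supernatant tryptase activity on a fluorogenic substrate.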

[2] = system: cultured human mast cells (CHMC); assay: CHMC low cell density ionomycin activation: tryptase assay; format: cell-based; details: low cell density CHMC, 3 pt, read-out: LD Tryptase, CHMC, Iono, 3 pt
[3] = Homo sapiens, Mast cell, tryptase readout, 3 pt, read-out: LD Tryptase, CHMC, IgE, 3 pt
[4] = Homo sapiens, Mast cell, tryptase readout, 8 pt, read-out: LD Tryptase, CHMC, IgE, 8 pt
[5] = Homo sapiens, Mast cell, tryptase readout
[6] = tryptase readout, 3 pt, read-out: LD Tryptase, CHMC, IgE, 3 pt
[7] = Homo sapiens, Mast cell, tryptase, 3 pt, read-out: LD Tryptase, CHMC, IgE, 3 pt
[8] = Homo sapiens, Mast cell, tryptase
[9] = Homo sapiens, Mast cell, tryptase, 8 pt, read-out: LD Tryptase, CHMC, IgE, 8 pt

Row | pIC50 [1, 3] | pIC50 [2, 5] | Structure (SMILES) | further results
1 | > 5.00 | < 5.00 | COc1cc(Nc2ncc(F)c(NC3CCC3)n2)cc(C(F)(F)F)c1 [Compound 1089, N4-Cyclobutyl-5-fluoro-N2-(3-methoxy-5-trifluoromethylphenyl)-2,4-pyrimidinediamine] | pIC50 [1, 4]: > 5.00
2 | > 5.00 | < 5.00 | CC(C)(C)c1cc(Nc2nc(Nc3cccc(N4CCOCC4)c3)ncc2F)n[nH]1 [Compound 1090] | pIC50 [1, 4]: > 5.00
3 | > 5.00 | < 5.00 | CC(=O)N1CCN(c2cccc(Nc3ncc(F)c(Nc4cc(C(C)(C)C)[nH]n4)n3)c2)CC1 [Compound 1091, N2-[3-(4-Acetylpiperazino)phenyl]-N4-(5-tert-butyl-1H-pyrazol-3-yl)-5-fluoro-2,4-pyrimidinediamine] | pIC50 [1, 4]: > 5.00
4 |  |  | C[C@@H]1Oc2ccc(Nc3nc(Nc4cc(C(C)(C)C)[nH]n4)ncc3F)nc2NC1=O [Compound 1092, (S)-N2-(5-tert-Butyl-1H-pyrazol-3-yl)-5-fluoro-N4-(2-methyl-3-oxo-2H,4H-5-pyrid[1,4]oxazin-6-yl)-2,4-pyrimidinediamine] | pIC50 [1, 6]: > 5.00; pIC50 ([1]; tryptase readout, 8 pt, read-out: LD Tryptase, CHMC, IgE, 8 pt): > 5.00; pIC50 ([2]; tryptase readout): < 5.00
5 | > 5.00 | < 5.00 | COc1ccc(Nc2ncc(F)c(Nc3cccc(NC4=NCCN4)c3)n2)cc1F [Compound 1094, 5-Fluoro-N2-(3-fluoro-4-methoxyphenyl)-N4-[3-(N-2-imidazolin-2-yl)aminophenyl]-2,4-pyrimidinediamine] | 
6 | > 5.00 | < 5.00 | Cc1cc(C)cc(Nc2ncc(F)c(Nc3cccc(NC4=NCCN4)c3)n2)c1 [Compound 1095, N2-(3,5-Dimethylphenyl)-5-fluoro-N4-[3-(N-2-imidazolin-2-yl)aminophenyl]-2,4-pyrimidinediamine] | 
7 | > 5.00 | < 5.00 | COc1cc(Nc2ncc(F)c(Nc3cccc(NC4=NCCN4)c3)n2)cc(OC)c1 [Compound 1096, N2-(3,5-Dimethoxyphenyl)-5-fluoro-N4-[3-(N-2-imidazolin-2-yl)aminophenyl]-2,4-pyrimidinediamine] | pIC50 [1, 4]: < 5.00
8 | < 5.00 | < 5.00 | Fc1cnc(Nc2cccc(N3CCOCC3)c2)nc1Nc1cccc(NC2=NCCN2)c1 [Compound 1097, 5-Fluoro-N4-[3-(N-2-imidazolin-2-yl)aminophenyl]-N2-(3-morpholinophenyl)-2,4-pyrimidinediamine] | 
9 | < 5.00 | < 5.00 | CCOC(=O)N1CCN(c2cccc(Nc3ncc(F)c(Nc4cccc(NC5=NCCN5)c4)n3)c2)CC1 [Compound 1098, N2-[3-(4-Ethoxycarbonylpiperazino)phenyl]-5-fluoro-N4-[3-(N-2-imidazolin-2-yl)aminophenyl]-2,4-pyrimidinediamine] | 
10 | < 5.00 | < 5.00 | CN1CCN(c2ccc(Nc3ncc(F)c(Nc4cccc(NC5=NCCN5)c4)n3)cc2)CC1 [Compound 1099, 5-Fluoro-N4-[3-(N-2-imidazolin-2-yl)aminophenyl]-N2-[4-(4-methylpiperazino)phenyl]-2,4-pyrimidinediamine] | 
11 | < 5.00 | < 5.00 | COC(=O)N1CCN(c2ccc(Nc3ncc(F)c(Nc4cccc(NC5=NCCN5)c4)n3)cc2)CC1 [Compound 1100, 5-Fluoro-N4-[3-(N-2-imidazolin-2-yl)aminophenyl]-N2-[4-(4-methoxycarbonylpiperazino)phenyl]-2,4-pyrimidinediamine] | 
12 | > 5.00 | < 5.00 | CCOC(=O)N1CCN(c2cccc(Nc3ncc(F)c(Nc4cc(C(C)(C)C)[nH]n4)n3)c2)CC1 [Compound 1101, N4-(5-tert-Butyl-1H-pyrazol-3-yl)-N2-[3-(4-ethoxycarbonylpiperazino)phenyl]-5-fluoro-2,4-pyrimidinediamine] | 
13 | > 5.00 | < 5.00 | CC(=O)N1CCN(c2ccc(Nc3ncc(F)c(Nc4cc(C(C)(C)C)[nH]n4)n3)cc2)CC1 [Compound 1102] | pIC50 [1, 4]: > 5.00
14 | > 5.00 | < 5.00 | COC(=O)N1CCN(c2ccc(Nc3ncc(F)c(Nc4cc(C(C)(C)C)[nH]n4)n3)cc2)CC1 [Compound 1103] | pIC50 [1, 4]: > 5.00
15 | > 5.00 | < 5.00 | CN1CCN(c2ccc(Nc3ncc(F)c(Nc4cc(C(C)(C)C)[nH]n4)n3)cc2)CC1 [Compound 1104] | pIC50 [1, 4]: > 5.00
16 | < 5.00 | < 5.00 | CC(=O)N1CCN(c2ccc(Nc3ncc(F)c(Nc4cccc(NC5=NCCN5)c4)n3)cc2)CC1 [Compound 1105, N2-[4-(4-Acetylpiperazino)phenyl]-5-fluoro-N4-[3-(N-2-imidazolin-2-yl)aminophenyl]-2,4-pyrimidinediamine] | 
17 | < 5.00 | < 5.00 | CC(=O)N1CCN(c2cccc(Nc3ncc(F)c(Nc4cccc(NC5=NCCN5)c4)n3)c2)CC1 [Compound 1106] | 
18 | > 5.00 | > 5.00 | CCOC(=O)c1cc2cccc(Nc3ncc(F)c(NC4CCC4)n3)c2[nH]1 [Compound 1107, N4-Cyclobutyl-N2-[2-(ethoxycarbonyl)indol-7-yl]-5-fluoro-2,4-pyrimidinediamine] | 
19 | > 5.00 | < 5.00 | Fc1cnc(Nc2cccc(N3CCOCC3)c2)nc1NC1CCC1 [Compound 1108, N4-Cyclobutyl-5-fluoro-N2-(3-morpholinophenyl)-2,4-pyrimidinediamine] | pIC50 [1, 4]: > 5.00
20 |  |  | CCOC(=O)N1CCN(c2cccc(Nc3ncc(F)c(NC4CCC4)n3)c2)CC1 [Compound 1109, N4-Cyclobutyl-N2-[3-(4-ethoxycarbonylpiperazino)pheny]-5-fluoro-2,4-pyrimidinediamine] | pIC50 [1, 6]: > 5.00; pIC50 ([2]; tryptase readout): < 5.00
21 | > 5.00 | < 5.00 | CN1CCN(c2ccc(Nc3ncc(F)c(NC4CCC4)n3)cc2)CC1 [Compound 1110, N4-Cyclobutyl-5-fluoro-N2-[4-(4-methylpiperazino)phenyl]-2,4-pyrimidinediamine] | 
22 |  |  | CCOC(=O)N1CCN(c2ccc(Nc3ncc(F)c(NC4CCC4)n3)cc2)CC1 [Compound 1111, N4-Cyclobutyl-N2-[4-(4-ethoxycarbonylpiperazino)phenyl]-5-fluoro-2,4-pyrimidinediamine] | pIC50 [1, 7]: > 5.00; pIC50 [2, 8]: < 5.00
23 |  |  | CC(=O)N1CCN(c2cccc(Nc3ncc(F)c(Nc4cc(C5CC5)n[nH]4)n3)c2)CC1 [Compound 1112] | pIC50 [1, 7]: > 5.00; pIC50 [1, 9]: > 5.00; pIC50 [2, 8]: > 5.00
24 |  |  | CN1CCN(c2ccc(Nc3ncc(F)c(Nc4cc(C5CC5)n[nH]4)n3)cc2)CC1 [Compound 1113, N4-(3-Cyclopropyl-1H-pyrazol-5-yl)-5-fluoro-N2-[4-(4-methylpiperazino)phenyl]-2,4-pyrimidinediamine] | pIC50 [1, 7]: > 5.00; pIC50 [1, 9]: > 5.00; pIC50 [2, 8]: < 5.00
25 |  |  | Fc1cnc(Nc2cccc(N3CCOCC3)c2)nc1Nc1cc(C2CC2)n[nH]1 [Compound 1114] | pIC50 [1, 7]: > 5.00; pIC50 [1, 9]: > 5.00; pIC50 [2, 8]: < 5.00
26 |  |  | CCOC(=O)N1CCN(c2cccc(Nc3ncc(F)c(Nc4cc(C5CC5)n[nH]4)n3)c2)CC1 [Compound 1115] | pIC50 [1, 7]: > 5.00; pIC50 [2, 8]: > 5.00
27 |  |  | CCOC(=O)N1CCN(c2ccc(Nc3ncc(F)c(Nc4cc(C5CC5)n[nH]4)n3)cc2)CC1 [Compound 1116, N4-(3-Cyclopropyl-1H-pyrazol-5-yl)-N2-[4-(4-ethoxycarbonylpiperazino)phenyl]-5-fluoro-2,4-pyrimidinediamine] | pIC50 [1, 7]: > 5.00; pIC50 [2, 8]: > 5.00
